In ChEMBL document CHEMBL4507305, “Data for DCP probe TP-024” (2021):

Tests used:
[1] = system: Tyrosine-protein kinase ABL1 (Homo sapiens), P00519 [F317L]; conditions: Compound concentration 1000.0 nM
[2] = target: Ribosomal protein S6 kinase alpha-4 (Homo sapiens) (UniProt O75676); conditions: Compound concentration 1000.0 nM
[3] = target: Tyrosine-protein kinase JAK1 (Homo sapiens) (UniProt P23458); conditions: Compound concentration 1000.0 nM
[4] = target: D(4) dopamine receptor (Homo sapiens) (UniProt P21917); conditions: Compound concentration 10.0 uM
[5] = target: Microtubule-associated serine/threonine-protein kinase 1 (Homo sapiens) (UniProt Q9Y2H9); conditions: Compound concentration 1000.0 nM
[6] = system: Mast/stem cell growth factor receptor Kit (Homo sapiens), P10721 [L576P]; conditions: Compound concentration 1000.0 nM
[7] = target: Serine/threonine-protein kinase OSR1 (Homo sapiens) (UniProt O95747); conditions: Compound concentration 1000.0 nM
[8] = system: Fibroblast growth factor receptor 3 (Homo sapiens), P22607 [G697C]; conditions: Compound concentration 1000.0 nM
[9] = target: Cyclin-dependent kinase 4 (Homo sapiens) (UniProt P11802); conditions: Compound concentration 1000.0 nM
[10] = target: Serine/threonine-protein kinase DCLK3 (Homo sapiens) (UniProt Q9C098); conditions: Compound concentration 1000.0 nM
[11] = target: Transient receptor potential cation channel subfamily M member 6 (Homo sapiens) (UniProt Q9BX84); conditions: Compound concentration 1000.0 nM
[12] = target: Serine/threonine-protein kinase 32A (Homo sapiens) (UniProt Q8WU08); conditions: Compound concentration 1000.0 nM
[13] = target: Fibroblast growth factor receptor 3 (Homo sapiens) (UniProt P22607); conditions: Compound concentration 1000.0 nM
[14] = target: Tyrosine-protein kinase Blk (Homo sapiens) (UniProt P51451); conditions: Compound concentration 1000.0 nM
[15] = target: Sodium-dependent noradrenaline transporter (Homo sapiens) (UniProt P23975); conditions: Compound concentration 10.0 uM
[16] = system: Tyrosine-protein kinase ABL1 (Homo sapiens), P00519 [H396P]; conditions: Compound concentration 1000.0 nM
[17] = target: Mitogen-activated protein kinase 7 (Homo sapiens) (UniProt Q13164); conditions: Compound concentration 1000.0 nM
[18] = target: Casein kinase I isoform delta (Homo sapiens) (UniProt P48730); conditions: Compound concentration 1000.0 nM
[19] = target: 5-hydroxytryptamine receptor 1D (Homo sapiens) (UniProt P28221); conditions: Compound concentration 10.0 uM
[20] = target: Tyrosine-protein kinase HCK (Homo sapiens) (UniProt P08631); conditions: Compound concentration 1000.0 nM
[21] = target: Cyclin-dependent kinase 17 (Homo sapiens) (UniProt Q00537); conditions: Compound concentration 1000.0 nM
[22] = target: Myosin light chain kinase (Homo sapiens) (UniProt Q32MK0); conditions: Compound concentration 1000.0 nM
[23] = target: Dual specificity tyrosine-phosphorylation-regulated kinase 2 (Homo sapiens) (UniProt Q92630); conditions: Compound concentration 1000.0 nM
[24] = target: Serine/threonine-protein kinase NIM1 (Homo sapiens) (UniProt Q8IY84); conditions: Compound concentration 1000.0 nM
[25] = target: Aurora kinase B (Homo sapiens) (UniProt Q96GD4); conditions: Compound concentration 1000.0 nM
[26] = target: Alpha-2A adrenergic receptor (Homo sapiens) (UniProt P08913); conditions: Compound concentration 10.0 uM
[27] = target: Cyclin-dependent kinase 19 (Homo sapiens) (UniProt Q9BWU1); conditions: Compound concentration 1000.0 nM
[28] = system: Proto-oncogene tyrosine-protein kinase receptor Ret (Homo sapiens), P07949 [V804L]; conditions: Compound concentration 1000.0 nM
[29] = target: Serine/threonine-protein kinase 3 (Homo sapiens) (UniProt Q13188); conditions: Compound concentration 1000.0 nM
[30] = target: Serine/threonine-protein kinase 38-like (Homo sapiens) (UniProt Q9Y2H1); conditions: Compound concentration 1000.0 nM
[31] = target: Insulin receptor (Homo sapiens) (UniProt P06213); conditions: Compound concentration 1000.0 nM
[32] = target: Sigma non-opioid intracellular receptor 1 (Homo sapiens) (UniProt Q99720); conditions: Compound concentration 10.0 uM
[33] = target: Kappa-type opioid receptor (Homo sapiens) (UniProt P41145); conditions: Compound concentration 10.0 uM
[34] = target: Rho-associated protein kinase 1 (Homo sapiens) (UniProt Q13464); conditions: Compound concentration 1000.0 nM
[35] = target: Interferon-induced, double-stranded RNA-activated protein kinase (Homo sapiens) (UniProt P19525); conditions: Compound concentration 1000.0 nM
[36] = target: Serine/threonine-protein kinase SIK2 (Homo sapiens) (UniProt Q9H0K1); conditions: Compound concentration 1000.0 nM
[37] = system: Tyrosine-protein kinase ABL1 (Homo sapiens), P00519 [Y253F]; conditions: Compound concentration 1000.0 nM
[38] = target: Serine/threonine-protein kinase WNK4 (Homo sapiens) (UniProt Q96J92); conditions: Compound concentration 1000.0 nM
[39] = target: Dual specificity mitogen-activated protein kinase kinase 4 (Homo sapiens) (UniProt P45985); conditions: Compound concentration 1000.0 nM
[40] = target: MAP kinase-interacting serine/threonine-protein kinase 1 (Homo sapiens) (UniProt Q9BUB5); conditions: Compound concentration 1000.0 nM
[41] = target: Sigma intracellular receptor 2 (Homo sapiens) (UniProt Q5BJF2); conditions: Compound concentration 10.0 uM
[42] = target: 5-hydroxytryptamine receptor 5A (Homo sapiens) (UniProt P47898); conditions: Compound concentration 10.0 uM
[43] = target: Serine/threonine-protein kinase PAK 1 (Homo sapiens) (UniProt Q13153); conditions: Compound concentration 1000.0 nM
[44] = system: Receptor-type tyrosine-protein kinase FLT3 (Homo sapiens), P36888 [N841I]; conditions: Compound concentration 1000.0 nM
[45] = target: Ribosomal protein S6 kinase alpha-5 (Homo sapiens) (UniProt O75582); conditions: Compound concentration 1000.0 nM
[46] = target: Testis-specific serine/threonine-protein kinase 3 (Homo sapiens) (UniProt Q96PN8); conditions: Compound concentration 1000.0 nM

Serine/threonine-protein kinase NIM1 (Homo sapiens), sequence (Q8IY84 whole entry): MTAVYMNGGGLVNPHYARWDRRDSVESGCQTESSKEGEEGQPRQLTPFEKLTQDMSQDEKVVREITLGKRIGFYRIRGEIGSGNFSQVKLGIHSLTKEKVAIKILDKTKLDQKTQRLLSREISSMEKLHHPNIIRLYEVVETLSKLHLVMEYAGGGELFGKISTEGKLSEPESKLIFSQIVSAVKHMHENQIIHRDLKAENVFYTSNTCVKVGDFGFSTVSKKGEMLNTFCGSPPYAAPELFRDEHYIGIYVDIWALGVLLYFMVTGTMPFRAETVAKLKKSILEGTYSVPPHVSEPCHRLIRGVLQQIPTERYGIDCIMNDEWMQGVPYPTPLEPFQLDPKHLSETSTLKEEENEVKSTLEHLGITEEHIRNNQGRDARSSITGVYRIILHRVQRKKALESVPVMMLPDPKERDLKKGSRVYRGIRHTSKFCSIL
D(4) dopamine receptor (Homo sapiens), sequence (P21917 whole entry): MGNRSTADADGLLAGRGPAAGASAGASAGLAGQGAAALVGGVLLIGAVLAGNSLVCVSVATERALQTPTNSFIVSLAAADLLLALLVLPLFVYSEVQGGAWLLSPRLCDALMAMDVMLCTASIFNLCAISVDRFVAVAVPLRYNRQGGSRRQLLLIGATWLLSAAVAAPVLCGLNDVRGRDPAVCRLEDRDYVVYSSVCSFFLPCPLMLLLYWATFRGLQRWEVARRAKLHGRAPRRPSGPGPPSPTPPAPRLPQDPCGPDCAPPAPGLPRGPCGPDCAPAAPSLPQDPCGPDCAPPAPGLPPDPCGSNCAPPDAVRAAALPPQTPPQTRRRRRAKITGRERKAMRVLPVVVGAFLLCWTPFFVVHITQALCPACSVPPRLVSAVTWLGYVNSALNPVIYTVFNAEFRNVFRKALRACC
Serine/threonine-protein kinase WNK4 (Homo sapiens), sequence (Q96J92 whole entry): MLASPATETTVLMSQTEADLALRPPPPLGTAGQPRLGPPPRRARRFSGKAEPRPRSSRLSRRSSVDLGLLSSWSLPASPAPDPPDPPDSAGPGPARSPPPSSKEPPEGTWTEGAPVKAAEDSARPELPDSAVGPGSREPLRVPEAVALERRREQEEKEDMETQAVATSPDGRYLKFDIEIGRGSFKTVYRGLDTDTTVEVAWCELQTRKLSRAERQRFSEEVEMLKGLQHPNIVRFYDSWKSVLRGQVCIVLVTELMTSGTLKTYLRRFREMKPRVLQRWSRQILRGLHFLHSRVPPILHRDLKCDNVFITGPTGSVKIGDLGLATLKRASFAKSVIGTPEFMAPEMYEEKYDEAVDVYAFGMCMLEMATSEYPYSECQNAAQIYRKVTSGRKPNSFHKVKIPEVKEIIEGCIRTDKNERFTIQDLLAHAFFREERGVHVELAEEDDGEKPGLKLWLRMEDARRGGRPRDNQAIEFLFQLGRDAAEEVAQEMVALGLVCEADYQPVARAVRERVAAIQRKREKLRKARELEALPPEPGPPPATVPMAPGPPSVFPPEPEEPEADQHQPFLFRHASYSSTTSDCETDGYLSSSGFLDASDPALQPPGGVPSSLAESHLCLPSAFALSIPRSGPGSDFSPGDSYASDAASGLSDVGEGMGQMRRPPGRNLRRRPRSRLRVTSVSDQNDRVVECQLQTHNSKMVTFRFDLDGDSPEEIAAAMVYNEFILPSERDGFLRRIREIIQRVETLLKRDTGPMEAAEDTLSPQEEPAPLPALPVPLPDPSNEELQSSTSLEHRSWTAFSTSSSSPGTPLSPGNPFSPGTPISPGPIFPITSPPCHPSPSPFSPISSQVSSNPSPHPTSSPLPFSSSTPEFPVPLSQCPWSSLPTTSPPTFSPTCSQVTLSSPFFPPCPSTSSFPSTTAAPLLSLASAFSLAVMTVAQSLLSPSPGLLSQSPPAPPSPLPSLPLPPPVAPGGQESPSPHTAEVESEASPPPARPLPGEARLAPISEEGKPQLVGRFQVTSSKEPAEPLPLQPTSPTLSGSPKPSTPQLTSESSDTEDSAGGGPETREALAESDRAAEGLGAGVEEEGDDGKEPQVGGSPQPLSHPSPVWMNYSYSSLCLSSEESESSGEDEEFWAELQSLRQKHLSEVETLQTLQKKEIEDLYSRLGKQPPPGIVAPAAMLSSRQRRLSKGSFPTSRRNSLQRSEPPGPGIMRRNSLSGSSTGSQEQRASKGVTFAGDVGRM
Cyclin-dependent kinase 19 (Homo sapiens), sequence (Q9BWU1 whole entry): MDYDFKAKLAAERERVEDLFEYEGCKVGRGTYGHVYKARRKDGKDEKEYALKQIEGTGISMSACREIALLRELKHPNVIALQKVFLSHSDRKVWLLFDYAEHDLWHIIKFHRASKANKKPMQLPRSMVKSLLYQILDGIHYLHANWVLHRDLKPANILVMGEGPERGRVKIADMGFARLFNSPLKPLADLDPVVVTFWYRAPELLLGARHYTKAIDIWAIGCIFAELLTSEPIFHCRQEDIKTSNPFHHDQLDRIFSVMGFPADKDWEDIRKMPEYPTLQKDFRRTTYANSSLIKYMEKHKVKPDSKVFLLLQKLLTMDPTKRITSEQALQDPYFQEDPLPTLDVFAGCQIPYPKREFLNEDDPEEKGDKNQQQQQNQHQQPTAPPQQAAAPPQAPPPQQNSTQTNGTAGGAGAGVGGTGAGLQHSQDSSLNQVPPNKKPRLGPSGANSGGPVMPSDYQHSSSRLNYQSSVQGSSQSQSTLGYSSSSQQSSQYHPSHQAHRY
Microtubule-associated serine/threonine-protein kinase 1 (Homo sapiens), sequence (Q9Y2H9 whole entry, looked up): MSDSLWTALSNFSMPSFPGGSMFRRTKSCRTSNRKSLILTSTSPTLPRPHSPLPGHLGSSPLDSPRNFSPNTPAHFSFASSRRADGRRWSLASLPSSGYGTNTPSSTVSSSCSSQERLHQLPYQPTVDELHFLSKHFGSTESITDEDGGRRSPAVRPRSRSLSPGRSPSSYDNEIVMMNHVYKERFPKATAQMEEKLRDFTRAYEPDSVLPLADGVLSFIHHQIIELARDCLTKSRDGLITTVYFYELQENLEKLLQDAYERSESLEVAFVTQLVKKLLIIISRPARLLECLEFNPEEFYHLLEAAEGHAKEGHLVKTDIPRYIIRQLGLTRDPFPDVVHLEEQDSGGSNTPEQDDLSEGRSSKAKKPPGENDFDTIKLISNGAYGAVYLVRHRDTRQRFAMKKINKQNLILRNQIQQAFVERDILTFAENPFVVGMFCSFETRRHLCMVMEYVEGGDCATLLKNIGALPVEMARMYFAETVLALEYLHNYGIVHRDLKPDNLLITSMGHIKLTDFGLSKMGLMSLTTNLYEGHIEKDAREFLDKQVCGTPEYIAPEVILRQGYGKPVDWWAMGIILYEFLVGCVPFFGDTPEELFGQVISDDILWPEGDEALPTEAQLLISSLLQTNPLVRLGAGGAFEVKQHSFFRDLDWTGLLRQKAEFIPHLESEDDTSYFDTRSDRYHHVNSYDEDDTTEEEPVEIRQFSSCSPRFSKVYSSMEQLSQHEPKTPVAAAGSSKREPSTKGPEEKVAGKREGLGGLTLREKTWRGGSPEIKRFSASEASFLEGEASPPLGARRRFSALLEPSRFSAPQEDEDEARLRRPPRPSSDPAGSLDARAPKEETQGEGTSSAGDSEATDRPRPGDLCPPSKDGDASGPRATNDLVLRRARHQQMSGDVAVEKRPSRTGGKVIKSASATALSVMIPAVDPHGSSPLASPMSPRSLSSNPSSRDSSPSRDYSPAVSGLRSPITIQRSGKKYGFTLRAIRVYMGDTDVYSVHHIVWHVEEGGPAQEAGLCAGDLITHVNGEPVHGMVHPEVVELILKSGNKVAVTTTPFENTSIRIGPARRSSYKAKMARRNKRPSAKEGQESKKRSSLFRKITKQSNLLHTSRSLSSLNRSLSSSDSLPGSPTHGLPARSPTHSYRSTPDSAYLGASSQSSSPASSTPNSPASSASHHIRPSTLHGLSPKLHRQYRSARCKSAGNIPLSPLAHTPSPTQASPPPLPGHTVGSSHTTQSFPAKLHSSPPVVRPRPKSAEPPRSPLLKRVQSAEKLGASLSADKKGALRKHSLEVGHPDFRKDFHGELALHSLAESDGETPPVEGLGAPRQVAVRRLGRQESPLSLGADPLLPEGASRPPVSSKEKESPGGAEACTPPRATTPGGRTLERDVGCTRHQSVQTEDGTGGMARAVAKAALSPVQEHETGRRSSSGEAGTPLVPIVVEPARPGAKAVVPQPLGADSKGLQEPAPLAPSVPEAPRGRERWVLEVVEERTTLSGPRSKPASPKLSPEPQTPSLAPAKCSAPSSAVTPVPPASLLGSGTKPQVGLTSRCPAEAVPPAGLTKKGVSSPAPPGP
Mitogen-activated protein kinase 7 (Homo sapiens), sequence (Q13164 2-816 limits assumed): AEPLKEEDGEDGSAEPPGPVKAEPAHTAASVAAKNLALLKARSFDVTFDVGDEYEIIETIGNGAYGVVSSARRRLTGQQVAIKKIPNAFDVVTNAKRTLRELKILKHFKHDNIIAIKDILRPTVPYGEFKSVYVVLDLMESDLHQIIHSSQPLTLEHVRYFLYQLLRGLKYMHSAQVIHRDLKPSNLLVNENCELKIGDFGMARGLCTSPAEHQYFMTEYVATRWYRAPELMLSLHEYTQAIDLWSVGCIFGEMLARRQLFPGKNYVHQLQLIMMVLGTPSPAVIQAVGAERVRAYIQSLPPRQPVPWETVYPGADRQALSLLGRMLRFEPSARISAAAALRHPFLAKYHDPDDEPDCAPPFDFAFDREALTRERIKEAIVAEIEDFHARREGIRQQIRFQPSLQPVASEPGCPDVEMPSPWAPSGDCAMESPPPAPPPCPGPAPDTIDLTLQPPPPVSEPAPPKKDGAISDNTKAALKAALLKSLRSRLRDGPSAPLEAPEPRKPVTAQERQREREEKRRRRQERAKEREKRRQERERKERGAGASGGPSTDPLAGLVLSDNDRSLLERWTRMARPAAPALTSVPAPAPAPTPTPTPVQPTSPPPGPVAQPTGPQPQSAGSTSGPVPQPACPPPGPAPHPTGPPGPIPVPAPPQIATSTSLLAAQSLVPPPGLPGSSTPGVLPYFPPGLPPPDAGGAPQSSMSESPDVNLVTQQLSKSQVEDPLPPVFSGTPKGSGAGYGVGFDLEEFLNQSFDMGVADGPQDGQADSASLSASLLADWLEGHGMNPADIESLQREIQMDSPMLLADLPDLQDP

## Cc1cc(-n2nc(Cc3cc(F)cc(C(F)(F)F)c3)nc2C)ccc1C(N)=O [TP-024]
[1]
  residual activity: 100%
[2]
  residual activity: 95%
[3]
  residual activity: 100%
[4]
  inhibition: -2.09%
[5]
  residual activity: 100%
[6]
  residual activity: 52%
[7]
  residual activity: 91%
[8]
  residual activity: 100%
[9]
  residual activity: 100%
[10]
  residual activity: 94%
[11]
  residual activity: 100%
[12]
  residual activity: 85%
[13]
  residual activity: 100%
[14]
  residual activity: 100%
[15]
  inhibition: -6.7%
[16]
  residual activity: 97%
[17]
  residual activity: 100%
[18]
  residual activity: 100%
[19]
  inhibition: 12.5%
[20]
  residual activity: 100%
[21]
  residual activity: 77%
[22]
  residual activity: 92%
[23]
  residual activity: 91%
[24]
  residual activity: 100%
[25]
  residual activity: 87%
[26]
  inhibition: 8.93%
[27]
  residual activity: 88%
[28]
  residual activity: 100%
[29]
  residual activity: 100%
[30]
  residual activity: 49%
[31]
  residual activity: 99%
[32]
  inhibition: 5.85%
[33]
  inhibition: 16%
[34]
  residual activity: 100%
[35]
  residual activity: 62%
[36]
  residual activity: 100%
[37]
  residual activity: 90%
[38]
  residual activity: 100%
[39]
  residual activity: 100%
[40]
  residual activity: 100%
[41]
  inhibition: -7.3%
[42]
  inhibition: 7.99%
[43]
  residual activity: 95%
[44]
  residual activity: 99%
[45]
  residual activity: 88%
[46]
  residual activity: 55%

## Cc1nc(Cc2cccc(C(F)(F)F)c2)sc1-c1ccc(C(N)=O)nc1 [TP-024n]
[1]
  residual activity: 93%
[2]
  residual activity: 82%
[3]
  residual activity: 86%
[4]
  inhibition: -2.16%
[5]
  residual activity: 100%
[6]
  residual activity: 89%
[7]
  residual activity: 100%
[8]
  residual activity: 76%
[9]
  residual activity: 100%
[10]
  residual activity: 100%
[11]
  residual activity: 88%
[12]
  residual activity: 76%
[13]
  residual activity: 100%
[14]
  residual activity: 100%
[15]
  inhibition: -8.77%
[16]
  residual activity: 87%
[17]
  residual activity: 88%
[18]
  residual activity: 75%
[19]
  inhibition: 8.49%
[20]
  residual activity: 100%
[21]
  residual activity: 83%
[22]
  residual activity: 81%
[23]
  residual activity: 90%
[24]
  residual activity: 100%
[25]
  residual activity: 100%
[26]
  inhibition: 4.44%
[27]
  residual activity: 98%
[28]
  residual activity: 86%
[29]
  residual activity: 97%
[30]
  residual activity: 44%
[31]
  residual activity: 95%
[32]
  inhibition: 11.7%
[33]
  inhibition: 3.47%
[34]
  residual activity: 69%
[35]
  residual activity: 49%
[36]
  residual activity: 90%
[37]
  residual activity: 88%
[38]
  residual activity: 100%
[39]
  residual activity: 100%
[40]
  residual activity: 100%
[41]
  inhibition: -8.52%
[42]
  inhibition: 3.99%
[43]
  residual activity: 84%
[44]
  residual activity: 86%
[45]
  residual activity: 83%
[46]
  residual activity: 100%
